According to patent publication US11957766B2, “HNQO1-activatable fluorescent probe for imaging cancer cells in-vitro and in-vivo” (Texas Tech University System, priority 2019, dated 2024):

How the values were obtained:
NQO1 = NQO1 (Homo sapiens, UniProt P15559); assay: HPLC analysis of NQO1 catalyzed conversion of NIR-ASM; type: biochemical; parameters: purchased Sigma-Aldrich D1515; details: after 30 min of incubation
Text: Design, preparation, and characterization of the NIR-ASM fluorescent probe. Imaging agents emitting near-infrared fluorescence enable deeper penetration with low phototoxicity and high signal-to-background ratios due to minimal tissue auto-fluorescence, which is a prime requirement for in vivo imaging studies.^40,41 Accordingly, the inventors designed an NQO1 activatable near-infrared fluorescent probe (NIR-ASM) by attaching a trimethyl-lock QPA with (E)-2-(3-(4-aminostyryl)-5,5-dimethylcyclohex-2-en-1-ylidene)malononitrile (ASM) for molecular imaging of cancer cells in vivo (FIG. 9A). The fluorophore ASM was used in this study because of its strong NIR fluorescence signal with substantial Stokes shift (˜190 nm), to eliminate background interferences by avoiding reabsorption of emitted photons. […] NQO1 is a ubiquitous cytosolic two-electron reductase that catalyzes the reduction of quinone substrates in the presence of NADH. Upon interaction with NQO1 in the presence of NADH, QPA present in non-fluorescent NIR-ASM undergoes two-electron reduction to form an o-hydroxydihydrocinnamic acid derivative that undergoes rapid lactonization under physiological conditions to yield dihydrocoumarin, 6-hydroxy-4,4,5,7,8-pentamethylchroman-2-one (HPC) along with highly fluorescent ASM. […]

[1] = test system: A549 and MDA-MB-231 tumors; assay: In vivo imaging of NQO1-positive (A549) and -negative (MDA-MB-231) xenografts in the same animal with NIR-ASM; parameters: species or system nude mice; details: intravenous, tumors of 200 mm^3
Experimental: Additionally, to validate the NQO1-specific activation of NIR-ASM to generate fluorescence, the inventors generated NQO1-positive (A549) and -negative (MDA-MB-231) xenografts in the same animal by injecting the corresponding tumor cells on the left and right flanks of the nude mice respectively. When tumors reached a volume of 200 mm^3, NIR-ASM was administered through intravenous injection and the animals were imaged using the In Vivo imager.
In vivo bioimaging. The animal study protocol was approved by the Institutional Animal Use and Care Committee (IACUC), Texas Tech University Health Sciences Center, Protocol number: 07050. All experimental protocols used in this study were approved by IACUC, Texas Tech University Health Sciences Center and all the methods were carried out according to the committee guidelines. Female athymic nude mice (nu/nu, 4-6 weeks) were purchased from Charles River Laboratories (Wilmington, MA, USA). BALB/c57 mice were provided by Dr. Constantinos Mikelis of our University. To establish A549 or MDA-MB-231 xenografts, a total of 5×10^6 cells (in 0.1 ml of serum-free media and Matrigel (1:1)) were subcutaneously injected into the flanks of the mice. […] All animals were monitored for activity, physical condition, body weight, and tumor growth. […] Fluorescence represented in log values of radiance is photons per second per square centimeter per steradian.

[2] = test system: normal (astrocytes) cells; assay: Fluorescence microscopy of NQ-DCP in hNQO1 negative normal cells; type: cell-based; details: 10 μM, 60 min
Experimental: Visualization of Cancer Cells by Fluorescence Imaging of hNQO1. […] The cytotoxicity of NQ-DCP was initially evaluated in cultured brain tumor (DAOY, T98G, and U87MG) and normal (astrocytes) cells to assess its biocompatibility using the resazurin reduction assay. […] Cells were incubated with NQ-DCP (10 μM) for 60 min, washed with PBS and were imaged under a fluorescence microscope.
Cell Culture, Fluorescence Imaging, and Flow Cytometry Analysis. Brain tumor cells and astrocytes were grown in Dulbecco's modified Eagle's (DMEM) medium containing 10% Fetal Bovine Serum and 1% penicillin/streptomycin in a humidified atmosphere of 5% CO2 at 37° C. For fluorescence imaging, initially, cells were seeded into 6-well plate and cultured overnight in respective media at 37° C. Media was replaced with fresh medium containing 10 μM NQ-DCP and incubated at 37° C. for 60 min and then the medium was replaced with PBS and live cells were imaged using a fluorescence microscope. For inhibitor study, cells were pretreated with NQO1 inhibitor ES936 (100 nM) for 6 h before adding the NQ-DCP. For determining endogenous hNQO1 activity in cancer cells using flow cytometry, about 10×10^4 cells were incubated with 10 μM of NQ-DCP for 60 min and were analyzed using flow cytometry.

Chain of NQO1 (P15559 whole entry): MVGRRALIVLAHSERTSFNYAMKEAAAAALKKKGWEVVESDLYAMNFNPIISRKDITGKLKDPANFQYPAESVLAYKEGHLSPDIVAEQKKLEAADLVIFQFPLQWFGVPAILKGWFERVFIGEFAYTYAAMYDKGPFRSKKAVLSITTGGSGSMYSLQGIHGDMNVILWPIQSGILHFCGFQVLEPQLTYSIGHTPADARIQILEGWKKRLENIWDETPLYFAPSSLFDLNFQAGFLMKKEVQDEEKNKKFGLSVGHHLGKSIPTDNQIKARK

Structure (SMILES) | conversion into ASM by NQO1 (HPLC) (NQO1) | fluorescence signal, NQO1-positive A549 tumor [1] | fluorescence signal, NQO1 negative MDAMB-231 tumors [1] | fluorescence signal in normal cells [2]
CC1=C(C)C(=O)C(C(C)(C)CC(=O)Nc2ccc(/C=C/C3=CC(=C(C#N)C#N)CC(C)(C)C3)cc2)=C(C)C1=O [NIR-ASM, (E)-N-(4-(2-(3-(dicyanomethylene)-5,5-dimethylcyclohex-1-en-1-yl)vinyl)phenyl)-3-methyl-3-(2,4,5-trimethyl-3,6-dioxocyclohexa-1,4-dien-1-yl)butanamide] | nearly completely converted into ASM | observed only from the A549 tumor | no signal was discernible | –
CC1=C(C)C(=O)C(C(C)(C)CC(=O)Oc2ccc(/C=C/C3=CC(=C(C#N)C#N)CC(C)(C)C3)cc2)=C(C)C1=O [NQ-DCP] | – | – | – | no signals were observed
